The record followed here is patent US4464300A, “Triazolo benzazepines” (Hoffmann-La Roche Inc., priority 1981, dated 1984).

Molecules are shown by their SMILES. Bounds are passed on as bounds.

For series [1], the system named is squirrel monkeys. The series is described as follows: Conflict Test in Monkeys. It counts as in vivo, male squirrel monkeys. The following applies: for minimal effective dose: Saimiri, in Primates, po, read-out: Conflict test in monkeys, MED (smallest significant effective dosage); for Conflict test in monkeys, HED (highest significant effective dosage): p.o. The method, then:
A two-key Skinner box with a feed pellet dispenser is used as the test apparatus. 13 fasted, male squirrel monkeys weighing 0.8 to 1 kg are used as the test animals. Upon pressing one of the keys the test animals receive a feed pellet on average every 6 minutes. Upon pressing the other key the test animals receive a feed pellet four times more frequently (i.e. on average every 1.5 minutes), but they are simultaneously punished with an electric foot-shock. The foot-shock causes a reduction in the pressing of the key which gives more frequent feed pellets. […] The smallest (MED) and the highest significant effective dosage (HED) are thereby determined.

Series [2] in a line: Anti-pentetrazole Test. It counts as in vivo, female mice. The following applies: Mus musculus, po, 0.5 h; p.o., mice, 30 minutes before i.v. pentetrazole; dosage giving convulsive threshold ratio treated:untreated of 2:1; read-out: Anti-pentetrazole test, PR 2.0. The method, then: The compound to be tested is administered orally to groups of 6 female mice (19-21 g) and 30 minutes later there is administered intravenously (0.375 ml/minute) a 0.5 percent solution of pentetrazole in sodium chloride solution. The time from the beginning of the infusion until tonic stretchings of the hind limbs appear is measured and therefrom there is calculated the dosage of penetetrazole administered up to this point in time, which is denoted as the convulsive threshold dosage. The PR2.0 is that dosage of the test substance which is required in order that the ratio of the convulsive threshold dosage in treated animals to the convulsive threshold dosage in untreated animals amounts to 2:1.

Series [3] deals with spontaneous movements of rats. The series is described as follows: Determination of the Motor Activity. Type of series: in vivo. The following applies: Rattus norvegicus, po, 2 hours, dosage which reduces mobility to 40% of untreated animals. The method, then:
Groups each comprising three rats (200 g) are confined in large cages. The test animals can adapt themselves to the new surroundings for 30 minutes; subsequently the test substance is administered to them orally. The spontaneous movements are registered automatically for 2 hours by means of infrared light barriers. The ED40 is that dosage which reduces to 40% the mobility of the test animals in comparison to the untreated animals.

The nature of series [4]: Anti-3-mercaptopropionic Acid Test. Type of series: in vivo, female mice. The note with it: Mus musculus, po, 0.5 h; p.o., mice, 30 minutes before 48.8 mg/kg i.p. 3-mercaptopropionic acid; Probit method. How it is done:
The compound to be tested is administered orally to female mice (19-21 g) and 30 minutes later there are administered i.p. 48.8 mg/kg of 3-mercaptopropionic acid, a dosage which in untreated animals causes after 4 minutes emprosthotonus and tonic stretching of the hind limbs. 12 mice are used per dosage. At least 6 to 8 different dosages are tested. The number of protected test animals per dosage group is determined and the ED50 is determined therefrom by means of the Probit method.

The nature of series [5]: acute toxicity, single oral administration to mice. The following applies: mouse, in vivo, p.o. An excerpt: Some representative members of the class of compound defined by formula I have been investigated in the tests described below, and it has been shown that in rats and monkeys they display pronounced anxiolytic properties. Moreover, the Table contains data concerning the acute toxicity of these compounds (LD50 in the case of single oral administration to mice).

Series [6] relates to rats. The experiment in a line: Conflict Test in Rats. The note with it: Rattus norvegicus, po, 30 minutes before 1-hour conflict test; Wilcoxon test; read-out: Conflict test in rats, FSD (first significant anxiolytically-effective dosage). It counts as in vivo. The method, then: The test apparatus is a one-key Skinner box with a feed pellet dispenser. For the testing of potential anxiolytics there are generally used 8 fasted rats per substance and dosage. In this case, there are used rats only which respond to the known anxiolytic chlordiazepoxide.
The test substances, which are dissolved or suspended in a mixture of 10 ml of distilled water and 2 drops of Tween 80, are administered to the test animals with the aid of a probang 30 minutes before the 1-hour conflict test. During the experiment, in which each key press for a feed pellet is combined with a foot-shock (conflict), the number of key operations is registered. In this case, each test animal serves as its own control, in that it is pre-treated once with test substance and once with sodium chloride solution.
The first significant anxiolytically-effective dosage (FSD) is determined with the Wilcoxon test (comparison of pairs) by comparing the number of key operations in the main test (feed pellet+foot-shock, after pre-treatment with test substance) directly with the number of key operations in the control test (feed pellet+foot-shock, after pre-treatment with sodium chloride solution).

Take `O=c1[nH]nc2n1-c1ccc(Cl)cc1C(c1ccccc1F)=CC2` [Compound A, 8-chloro-6-(2-fluorophenyl)-2,4-dihydro-1H-s-triazolo[4,3-a][1]benzazepin-1-one]: in series [1], the minimal effective dose was 1.25 mg/kg and the “Conflict test in monkeys, HED (highest significant effective dosage)” value is on record as over 80 mg/kg. The ED (2-fold convulsive threshold) in series [2] is 4.1 mg/kg. The compound further showed an ED40 in series [3] of over 300 mg/kg. The 50% effect level in series [4] (ED50) was put at a dose of 6 mg/kg. In addition, the LD50 in series [5] is over 5000 mg/kg. For the same compound, the minimal effective dose in series [6] came out at 3 mg/kg.
In the case of `NCc1nnc2n1-c1ccc(Cl)cc1C(c1ccccc1F)=CC2` [Compound B, 1-(aminomethyl)-8-chloro-6-(2-fluorophenyl)-4H-s-triazolo[4,3-a][1]benzazepine], in series [1], the minimal effective dose turned out to be 1.25 mg/kg and the “Conflict test in monkeys, HED (highest significant effective dosage)” value is reported as 10 mg/kg. In addition, the ED (2-fold convulsive threshold) in series [2] is 5.8 mg/kg. Also, in series [3], the ED40 is over 100 mg/kg. Further, the 50% effect level in series [4] (ED50) was put at a dose of 3.7 mg/kg. Further, the LD50 in series [5] lay in the range of 1000 to 2000 mg/kg. The minimal effective dose in series [6] was 100 mg/kg.
For `Cc1nnc2n1-c1ccc(Cl)cc1C(c1ccccc1F)=CC2` [Compound C, 8-chloro-6-(2-fluorophenyl)-1-methyl-4H-s-triazolo[4,3-a][1]benzazepine], the minimal effective dose in series [1] was determined as 10 mg/kg; in series [6], 3 mg/kg. In addition, the “Conflict test in monkeys, HED (highest significant effective dosage)” value in series [1] is over 80 mg/kg. Moreover, the ED (2-fold convulsive threshold) in series [2] is 4 mg/kg. Moreover, in series [3], the ED40 came to 77 mg/kg. This compound also gave an ED50 in series [4] of 1.9 mg/kg. For the same compound, in series [5], the LD50 is over 5000 mg/kg.

In general, ED50 refers to the dose that gives a 50% effect, or the effect in half of the subjects. Low values mean greater potency, high ones weaker potency. The term LD50 denotes the dose expected to kill half of the subjects tested. High values mean lower toxicity, low ones greater toxicity.
